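These data come from cells grown in 96-well plates and exposed to compound for 48 hours at five concentrations. At the GI50, growth is halved. At the TGI there is no net growth.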
How the values were obtained:
Experiment in all cases: NCI anticancer screen, dose series, 48 h
SNB-19 CNS = tested on: SNB-19 CNS
HT29 colon = tested on: HT29 colon
BT-549 breast = tested on: BT-549 breast
EKVX NSCLC = tested on: EKVX NSCLC
COLO 205 colon = tested on: COLO 205 colon
A549 NSCLC = tested on: A549 NSCLC
UACC-257 melanoma = tested on: UACC-257 melanoma
LOX IMVI melanoma = tested on: LOX IMVI melanoma
HCT-116 colon = tested on: HCT-116 colon
NCI-H460 lung = tested on: NCI-H460 lung
A498 renal = tested on: A498 renal
SK-OV-3 ovarian = tested on: SK-OV-3 ovarian
SW-620 colon = tested on: SW-620 colon
SR leukemia = tested on: SR leukemia
RXF 393 renal = tested on: RXF 393 renal
OVCAR-4 ovarian = tested on: OVCAR-4 ovarian
SK-MEL-28 melanoma = tested on: SK-MEL-28 melanoma
MDA-MB-435 = tested on: MDA-MB-435
UACC-62 melanoma = tested on: UACC-62 melanoma
MCF7 breast = tested on: MCF7 breast
CAKI-1 renal = tested on: CAKI-1 renal
MALME-3M melanoma = tested on: MALME-3M melanoma
M14 melanoma = tested on: M14 melanoma
786-0 renal = tested on: 786-0 renal
NCI-H226 lung = tested on: NCI-H226 lung
HOP-62 NSCLC = tested on: HOP-62 NSCLC
T-47D breast = tested on: T-47D breast
DU-145 prostate = tested on: DU-145 prostate

## NCCCCCCCCCCn1c2c(c3ccccc3c1=O)C(=O)c1ccccc1-2
SNB-19 CNS
  GI50: 8.31 µM
  TGI: 28 µM
HT29 colon
  GI50: 1890 nM
  TGI: 3.75 µM
BT-549 breast
  GI50: 5.64 µM
  TGI: 19.8 µM
EKVX NSCLC
  GI50: 17.3 µM
  TGI: 37.8 µM
COLO 205 colon
  GI50: 3.58 µM
  TGI: 12.7 µM
A549 NSCLC
  GI50: 11.5 µM
  TGI: 37 µM
UACC-257 melanoma
  GI50: 21.2 µM
  TGI: 44.8 µM
LOX IMVI melanoma
  GI50: 2650 nM
  TGI: 7.06 µM
HCT-116 colon
  GI50: 2740 nM
  TGI: 7.66 µM
NCI-H460 lung
  GI50: 4.06 µM
  TGI: 18.5 µM
A498 renal
  GI50: 13.1 µM
  TGI: 33.7 µM
SK-OV-3 ovarian
  GI50: 18.7 µM
  TGI: 35 µM
SW-620 colon
  GI50: 2330 nM
  TGI: 5.5 µM
SR leukemia
  GI50: 1860 nM
  TGI: 3.53 µM
RXF 393 renal
  GI50: 15.2 µM
  TGI: 36.7 µM
OVCAR-4 ovarian
  GI50: 8.7 µM
  TGI: 25.1 µM
SK-MEL-28 melanoma
  GI50: 3.97 µM
  TGI: 14.8 µM
MDA-MB-435
  GI50: 11.8 µM
  TGI: 27.9 µM
UACC-62 melanoma
  GI50: 13.7 µM
  TGI: 29.4 µM
MCF7 breast
  GI50: 4.67 µM
  TGI: 20.2 µM
CAKI-1 renal
  GI50: 14.7 µM
  TGI: 32.1 µM
MALME-3M melanoma
  GI50: 13.2 µM
  TGI: 33.9 µM
M14 melanoma
  GI50: 4.72 µM
  TGI: 16 µM
786-0 renal
  GI50: 4.8 µM
  TGI: 19.4 µM
NCI-H226 lung
  GI50: 20.4 µM
  TGI: 47.1 µM
HOP-62 NSCLC
  GI50: 4.84 µM
  TGI: 17.3 µM
T-47D breast
  GI50: 11.4 µM
  TGI: 39 µM
DU-145 prostate
  GI50: 3.46 µM
